# Test results reported in US7803559B1, “Protein aggregation regulators” (The Regents of the University of CA, priority 2003, dated 2010).
# Like-named read-outs stand apart in the source and are kept apart here.
# Experiments:
# [1] = Pharmacokinetics in serum and brain of mice (LC-MS); format: in vivo, mouse; details: for half-life: mouse
# Description: The pharmacokinetics of candidate compounds were assayed in serum and brain of mice. Wild-type C57B6 mice are injected with a single IP dose of a candidate compound, e.g., Y-27632 at 10 mg/kg. Pairs of animals are sacrificed at various time points and serum and brain samples were obtained for LC-MS analysis of drug levels. Plots of serum concentration vs. time and brain concentration vs. time are used to analyze, e.g., penetration of the blood/brain barrier, drug kinetics, and t1/2.
# Wild-type C57B6 mice were treated with a single 10 mg/kg dose of Y-27632 by IP injection. Pairs of animals were sacrificed at various time points and serum and brain samples were obtained for LC-MS analysis of Y-27632 levels. […] The initial rapid fall in serum concentration is likely due to tissue re-distribution. […] Values represent the average from two mice; error bars represent the range.
# [2] = tested on: Transgenic flies harboring htt exon 1 (Q93); assay: Drosophila model of htt exon 1 neurodegeneration (rhabdomeres per ommatidium); format: in vivo; details: 25 μM in food, seven days post-eclosion, p<0.0003 by ANOVA
# Description: Transgenic flies were used, harboring a human huntingtin exon 1 fragment with 93 glutamines (htt exon 1 (Q93)) that is expressed in all fly neurons under the control of the elav:Gal4 driver.
# Flies were treated by maintaining adults on food containing candidate compound (e.g., 25 μM Y-27632) or no drug supplement. The number of rhabdomeres in treated vs. untreated flies were analyzed seven days post-eclosion by the pseudopupil technique as described (Steffan et al., (2001). Nature 413, 739-743). Approximately 50-60 ommatidia were analyzed for rhabdomere content on each of 10-12 flies from each treatment group, and the average number of rhabdomeres per ommatidium in each individual was determined. Percent rhabdomere loss was calculated as 100×((7−average number remaining)/7) before and after treatment.
# The therapeutic effect of Y-27632 in a Drosophila model of polyglutamine neurodegenerative disease was tested. Following eclosion, adult flies expressing the transgene were grown for seven days in the presence or absence of 25 μM Y-27632 in their food and rhabdomeres were counted at seven days. […] Thus, in addition to reducing polyglutamine aggregation in mammalian cells, Y-27632 is neuroprotective in this Drosophila model of polyglutamine protein toxicity.
# [3] = biological target: T1, htt(72)CFP/YFP (Homo sapiens, UniProt P42858, INS38QQQQQQQQQQQQQQQQQQQQQQQQQQQQQQQQQQQQQQQQQQQQQQQQQQQ); assay: FRET based assay of htt aggregation; format: cell-based; details: for Max % Inh. in Htt: HEK293, htt(72)CFP/YFP, 24 hours
# T1 construct: htt exon 1 fragment derived from plasmid qp72; expressed in transfected cells; host or cells: HEK293
# T1 sequence (P42858 with tags, fused parts or gaps, stated change not applied): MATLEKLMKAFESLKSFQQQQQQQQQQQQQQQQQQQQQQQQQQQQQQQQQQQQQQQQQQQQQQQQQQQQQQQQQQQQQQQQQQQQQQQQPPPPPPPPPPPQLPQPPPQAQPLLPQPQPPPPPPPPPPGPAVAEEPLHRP
# Description: Aggregation of htt was monitored using the FPR FRET based HTS described herein for assaying aggregation of AR, using plasmids with htt exon 1-CFP and -YFP fusions containing 72 repeats (htt(72)CFP/YFP). HEK293 cells were transfected with htt(72)CFP/YFP as above, and cells were plated into a 96-well dish in the presence or absence of various concentrations of test compounds. After 24 hours, cells were fixed in 4% paraformaldehyde, and FRET signal was determined from the cell monolayers by reading on the FPR.
# [4] = tested on: AR(122)-C17.2 cells; assay: Cell model of full length AR cytopathology (surviving neurons after 6 days of differentiation); format: cell-based, mouse; details: 50 μM
# Text: (§1) Immortalized cell lines were created expressing full-length AR that differentiated in vitro into cells that resemble CNS neurons. C17.2 cells were used, developed by Evan Snyder, M. D., Ph.D. which are a transformed mouse neural precursor cell line that retain the ability to engraft and differentiate into CNS neurons and glia when implanted into fetal mouse brain (Snyder et al. 1192 Cell 68:33-51). In their undifferentiated form these cells may be propagated and easily transfected in vitro. However, upon serum starvation, addition of growth factor (NGF 100 ng/ml), and mitomycin (100 ng/ml) they differentiate into cells that have many features of CNS neurons, including axons, dendrites, and expression of neuron-specific markers.
# (§2) C17.2 cell lines were created that stably expressed full-length HA-tagged forms of AR (25, 66, 103, or 122 glutamines). These AR(n)-C17.2 cell lines recapitulate several important aspects of SBMA, including proteolytic cleavage, and nuclear inclusion formation (data not shown). […] After six days of differentiation, AR(25)-C17.2 cells cultured with or without DHT readily formed neuron-like cells, expressing neural markers and extending long axonal processes. […]
# [5] = tested on: ARN127(65)CFP/YFP; assay: FRET-based assay of polyglutamine (AR) aggregation, limited chemical screen and dose-response; format: cell-based, human
# Description: For experiments in the fluorescence plate reader, high-throughput screening, and detergent fractionation, HEK293 cells in 6-well plates were transfected with a total of 2 μg of DNA using 10 μL Plus™ and 12 μL Lipofectamine™ according to manufacturer's protocol. To control for autofluorescence and light scattering by mammalian cells, a control group was transfected with 2 μg pcDNA3. To control for bleedthrough and crossover excitation, CFP and YFP controls were transfected with 1 μg pECFP-C1 (Clontech) and 1 μg pcDNA3 (Invitrogen) or 1 μg pEYFP-C1 (Clontech) and 1 μg pcDNA3 respectively. After 5 hours, cells were counted and plated into optically clear 96-well plates (Costar™ 3603) at a density of 60,000 cells/well. […] For assays of rho-GTPase mutants, 1 μg of each was used in conjunction with 1 μg of the polyglutamine expression plasmids. Transfections were performed in triplicate, and each experiment was repeated 6 times. C17-2 neural precursor cells were plated in 12-well plates and transfected using 4 μg of DNA and 4 μl of Lipofectamine 2000™. […] In C17-2 cells polyglutamine protein was visualized by direct fluorescence; neuron-specific tubulin was visualized by immunostaining with mouse monoclonal antibody Neuro TUJ1 (Covance) at 1:1000. […]
# [6] = tested on: full-length AR; assay: Western blot of full-length AR levels in stable C17.2 neural cell lines; format: cell-based; details: 50 μM, with or without 100 nM DHT, FIG. 6A
# Text: as §1, §2
# [7] = tested on: ARN127(65)CFP/YFP; assay: Secondary screen using the AR FRET assay; format: cell-based, human; details: secondary screen, AR FRET assay, Table 3
# Description: Selected candidate compounds and/or libraries of compounds were screened as follows. Daughter plates were created in duplicate from the 384-well microtiter plates that contained the compounds at a concentration of 80 μg/ml. […] To screen a library, HEK293 cells stably expressing RFP were plated in 10 cm plates to obtain ˜80% confluency on the day of transfection. Each plate was transfected with 2 μg of ARN127(65)CFP/YFP each, and 0.7 μg p6RGRΔ using 50 μL Plus Reagent™ and 76 μL Lipofectamine™ according to manufacturer's protocol (Invitrogen). After 3 hours, complete medium was added and the plates were incubated further for 3 hours. […] The cells were then cultured for ˜48 hours to allow aggregate formation. After fixing the cells FRET signal was measured using a SAFIRE Fluorescence Plate Reader (Tecan, Inc.) according to methods described above. Several internal controls were used to standardize each experiment. Mock transfected cells were used to control for background autofluorescence and light scattering by mammalian cells. To control for CFP bleedthrough and crossover excitation of YFP, additional wells contained cells expressing ARN127(25)CFP or ARN127(25)YFP alone. RFP was measured to control for non-specific effects on steady-state protein levels. ARN127(25)CFP/YFP expression served as a reference point for background FRET levels without aggregation (a theoretical maximum effect on aggregation inhibition). FRET measurements for each experiment were thus scaled between 100% (cells with no drug treatment) and 0% (FRET levels from unexpanded protein).
# Selected candidate compounds from the primary screen of all three libraries were assayed again in a secondary screen using the AR FRET assay.
# Finally, the role of F-actin in preventing polyglutamine aggregation was investigated by treating cells with two agents that prevent actin depolymerization: phalloidin and jasplakinolide.
# [8] = C57B6 mice, single 10 mg/kg dose IP
compound,measurement,setting,value
C[C@@H](N)C1CCC(C(=O)Nc2ccncc2)CC1 (stereo partly shown) [Compound Y-27632],serum:brain ratio,"[1]; C57B6, mouse, in vivo, ip, 10 mg/kg",approximately 6:1
same,bioavailability,[1]; [8],excellent bioavailability
same,"brain concentration, peak",[1]; [8],≈ 500 nM
same,"serum concentration, spike",[1]; [8],approximately 3.5 μM
same,half-life,"[1]; serum and brain, C57B6 mice, single 10 mg/kg dose IP, read-out: t1/2 of clearance from serum and brain (first-order kinetics)",~1 h
same,half-life,"[1]; serum, C57B6 mice, single 10 mg/kg dose IP, read-out: t1/2 of clearance from serum",~1 h
same,rhabdomere loss prevented,[2],29%
same,aggregation of htt exon 1-CFP and -YFP fusions containing 72 repeats,[3]; FIG. 3A,inhibited aggregation
same,increase in number of surviving AR(122)-C17.2 neurons,[4],100%
same,effect on AR(25)-C17.2 cells,[4]; data not shown,without affecting AR(25)-C17.2 cells
same,decrease of FRET (polyglutamine protein aggregation),"[5]; HEK293, ARN127(65)CFP/YFP and GRΔ, 100 nM dex, 48 hours",40%
same,EC50,"[5]; dose-response analysis, FRET, FIG. 3B, read-out: EC50 for the effect on polyglutamine aggregation",~5 µM
same,AR steady-state levels,[6],reduced the AR steady-state levels
"COc1cc2ncnc(Nc3ccc(F)c(Cl)c3)c2cc1OC(C)=O [Compound 3, Acetic acid 4-(3-chloro-4-fluoro-phenylamino)-7-methoxy-quinazolin-6-yl ester]",Max % Inh. in Htt,[3],21%
same,Max % Inhibition,[7],30%
"Oc1cc(O)cc(/C=C/c2ccc(O)c(O)c2)c1 [Piceatannol, 3,3′4,5′-Tetrahydroxy-Trans-stilbene]",Max % Inh. in Htt,[3],28%
same,Max % Inhibition,[7],23%
"COc1cc2nc[nH]c(=O)c2cc1OC(C)=O [Compound 4, Acetic acid 7-methoxy-4-oxo-3,4-dihydro-quinazolin-6-yl ester]",Max % Inh. in Htt,[3],15%
same,Max % Inhibition,[7],28%
